Structures can show the parent of a compound that is named as a salt.
Assays:
[1] = Crystal form stability and hygroscopicity; format: physicochemical
Description: Compounds of the present invention can exist in more than one crystalline form. For example, crystalline forms may vary from solvate to solvate. Compounds of the present invention encompass all possible crystalline forms. In particular, for example, 5-(2-{4-[5-(4-fluorophenyl)-4-(2,2,2-trifluoroethoxymethyl)-oxazol-2-yl}-ethyl)-2-methoxybenzenesulfonamide hydrochloride exists in four known crystal forms. Form I melts around 145° C. and converts to Form III which has a melting point around 200° C.

male Wistar rats = assay: Behavioural and autonomic observation after oral dosing in rats; format: in vivo; details: 10 mg/kg po
Description: The compound of Example 13 was administered at 10 mg/kg (po) to male Wistar rats.

urethral pressure = assay: Canine urethral-prostate pressure: inhibition of hypogastric nerve stimulation response in anesthetized dog; format: in vivo, male mongrel dogs
Description: (§1) A. CANINE URETHRAL-PROSTATE PRESSURE
(§2) To evaluate the ability of compounds to affect urethral-prostate pressure (contractility) while assessing their cardiovascular effects simultaneously.
Using hypogastric nerve stimulation (NS) and the .varies.-1 agonist phenylephrine (or other receptor agonists, as appropriate) the responses of urethral pressures and systemic blood pressure are recorded. The tests compounds are then given in a log dose infusion. The inhibition of the NS response within the prostate as well as the systemic phenylephrine response on blood pressure is measured to assess the uro-selectivity of the compound in the anesthetized dog. […]
(§3) 4. Rectal temperature is monitored and maintained at 37-39° C. with a heating pad. […]
3. […] The effects of either nerve stimulation (NS) or IV phenylephrine can be evaluated.
(§4) 1. After a control period of at least 30 minutes and establishment of stable baselines of urethral and blood pressure are observed, the control responses to NS or phenylephrine bolus are recorded.
2. A hypogastric nerve stimulation of 16 Hertz, 10 Volts, 10 msec pulse width and 10 sec train duration are given and changes in urethral pressures are recorded.
3. At a time point 5 minutes post NS a phenylephrine bolus (10 μg/kg) is given into the cephalic vein and changes in blood pressure are recorded. […]

diastolic blood pressure = assay: Canine model: inhibition of phenylephrine response on diastolic blood pressure in anesthetized dog; format: in vivo, male mongrel dogs; details: Canis lupus familiaris, iv, dose (salt) producing 50% inhibition of agonist (phenylephrine) response on diastolic blood pressure, cumulative i.v. infusion, read-out: BP ED50
Description: as §1, §2
Using hypogastric nerve stimulation (NS) and the .varies.-1 agonist phenylephrine (or other receptor agonists, as appropriate) the responses of urethral pressures and systemic blood pressure are recorded. The tests compounds are then given in a log dose infusion. The inhibition of the NS response within the prostate as well as the systemic phenylephrine response on blood pressure is measured to assess the uro-selectivity of the compound in the anesthetized dog.
Interesting compounds are those that express uro-selectivity with a ratio of >100 for the urethral pressure vs diastolic blood pressure comparisons (BP.US). […]
as §3, §4
3. At a time point 5 minutes post NS a phenylephrine bolus (10 μg/kg) is given into the cephalic vein and changes in blood pressure are recorded. At least two NS and phenylephrine injections are performed and evaluated for their consistency, the second consistent stimulation is picked for the baseline value response. […]

Compound: COc1ccc(CCN2CCC(c3nc(COCC(F)(F)F)c(-c4ccc(F)cc4)o3)CC2)cc1S(N)(=O)=O [Form IV, 5-(2-{4-[5-(4-fluorophenyl)-4-(2,2,2-trifluoroethoxymethyl)-oxazol-2-yl}-ethyl)-2-methoxybenzenesulfonamide hydrochloride]
- conversion of crystal form ([1]; upon separation from the aqueous media): readily converts to an anhydrous form (Form II)

Compound: COc1ccc(CCN2CCC(c3nc(COCC(F)(F)F)c(-c4ccc(F)cc4)o3)CC2)cc1S(N)(=O)=O [Example 13, 5-(2-{4-[5-(4-fluorophenyl)-4-(2,2,2-trifluoroethoxymethyl)-oxazol-2-yl}-ethyl)-2-methoxybenzenesulfonamide hydrochloride]
- hygroscopicity ([1]; below 70% relative humidity): non-hydgroscopic
- solid state and chemical stability ([1]; below 70% relative humidity): good solid state and chemical stability
- conversion of crystal form ([1]; greater than 70% relative humidity): converts to form IV
- animals' appearance by 24 hours after dosing (male Wistar rats; 24 hours): all animals appeared normal by 24 hours after dosing
- ptosis (male Wistar rats; between 1 and 4 hours after dosing): Slight to moderate ptosis was observed

Compound: COc1ccc(CCN2CCC(c3nc(COCC(F)(F)F)c(-c4ccc(F)cc4)o3)CC2)cc1S(N)(=O)=O [Form I, 5-(2-{4-[5-(4-fluorophenyl)-4-(2,2,2-trifluoroethoxymethyl)-oxazol-2-yl}-ethyl)-2-methoxybenzenesulfonamide hydrochloride]
- conversion of crystal form ([1]; room temperature, aqueous media): convert to a hydrated form (Form IV)

Compound: COc1ccc(CCN2CCC(c3nc(COCC(F)(F)F)c(-c4ccc(F)cc4)o3)CC2)cc1S(N)(=O)=O [Example 12, 2-Methoxy-5-(2-{4-[5-(4-fluoro-phenyl)-4-(2,2,2-trifluoro-ethoxymethyl)-oxazol-2-yl]-piperidin-1-yl}-ethyl)-benzenesulfonamide]
- ED50 (urethral pressure; Canis lupus familiaris, iv, dose (salt) producing 50% inhibition of nerve stimulation response on urethral pressure, cumulative i.v. infusion, anesthetized dog, read-out: UP ED50): 0.013 mg/kg
- BP/UP (urethral pressure; ratio of the BP ED50 to the UP ED50, uro-selectivity): 550
- ED50 (diastolic blood pressure): 7.15 mg/kg
